Assay results reported in paper PMC3057987 (PLoS ONE, 2011).
Ends that are not written are not given here.

T1: MDMX-p53 interaction (Homo sapiens, UniProt O15151)
T1 construct: the cDNA of MDMX (1–200 amino acids) was amplified by PCR; made in house; host or cells: MDMX: wheat germ cell-free translation system; p53: E. coli BL21 (DE3) codon+
T1 sequence (O15151 1-200): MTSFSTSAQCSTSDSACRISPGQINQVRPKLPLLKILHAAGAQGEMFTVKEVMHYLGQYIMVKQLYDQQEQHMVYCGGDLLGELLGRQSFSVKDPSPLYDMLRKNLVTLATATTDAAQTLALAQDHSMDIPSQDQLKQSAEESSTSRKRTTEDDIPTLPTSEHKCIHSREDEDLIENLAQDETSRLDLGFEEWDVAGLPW

T2: MDMX (1–200 amino acids) (human, UniProt O15151 1-200)
T2 construct: MDMX, residues 1-200, cDNA amplified from a Human Mosaic cDNA template; also called MDMX(1–200)-FLAG; source: in vitro translated (wheat germ cell-free translation system)
T2 sequence (looked up): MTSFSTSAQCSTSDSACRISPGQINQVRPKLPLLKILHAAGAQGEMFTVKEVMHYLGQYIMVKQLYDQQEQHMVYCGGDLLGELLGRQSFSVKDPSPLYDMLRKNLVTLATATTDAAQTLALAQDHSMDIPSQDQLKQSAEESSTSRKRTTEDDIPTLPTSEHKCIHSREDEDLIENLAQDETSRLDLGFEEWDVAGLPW


Legend:
[1] = system: p53 pathway in SW480 cells (p53 mt); experiment: Activation of the p53 pathway (western blot) in SW480 cells; type: cell-based; settings: SW480 cells containing inactive mutated p53, plasmid transfection
Description: (§1) Figure 4 Functional analyses of GFP-MIP in living cells. […] (A) Immunoprecipitation assays with anti-GFP were performed followed by western blot with an anti-MDM2 antibody. I, input; F, flow-through; B, beads. (B) The whole cell lysates were analyzed by western blot with antibodies against p53, MDM2, p21 and β-actin. (C) mRNA levels of p53, MDM2, p21 and GAPDH were determined by quantitative reverse transcription-PCR using total RNA extracted from the cells. GAPDH was used for normalization.
(§2) Whole cell lysate was analyzed by western blot analysis with antibodies against p53 (Cell signaling, Beverly, MA, […]), MDM2 (SMP14, Santa Cruz), p21 (SX118, Pharmingen, San Diego, CA, USA) and β-actin (AC-15, Sigma). The blots were developed using an ECL chemiluminescence kit (GE Healthcare, Waukesha, WI, USA).

HCT116-p53+/+ cells = experiment: WST-1 cell viability / cell growth assay in HCT116-p53+/+ cells; type: cell-based; settings: plasmid transfection, data not shown
[2] = system: p53 pathway in HCT116-p53+/+ cells; experiment: Activation of the p53 pathway (western blot, quantitative RT-PCR) in HCT116-p53+/+ cells; type: cell-based, human; settings: plasmid transfection
Description: as §1
Figure 5 Activation of the p53 pathway by inhibiting the MDM2-p53 interaction. […] After 48 h, immunoprecipitation assay with anti-FLAG antibody was performed followed by western blot with anti-MDM2 or anti-FLAG antibody. […] After 24 h, the whole cell lysates were analyzed by western blot with antibodies against p53, p21 and β-actin. […] After 24 h, mRNA levels of p53, MDM2, p21 and GAPDH were determined by quantitative reverse transcription-PCR using total RNA extracted from the cells. GAPDH was used for normalization.
as §2
Total RNA was extracted with the RNeasy mini kit from cells. The RNA was used as template for the real-time RT-PCR reaction with the QuantiTect SYBR Green RT-PCR kit (Qiagen) using the p53F and p53R primer set, the mdm2F and mdm2R primer set or the p21F and p21R primer set. The GAPDH gene was used for normalization with the Light cycler primer sets (Roche, Basel, Switzerland).

MDM2-p53 interaction = biological target: T3, MDM2-p53 interaction (Homo sapiens, UniProt Q00987); experiment: ELISA of MDM2 (7-300) bound to immobilized His6-p53 in the presence of synthetic peptides; type: binding
T3 construct: In vitro-translated MDM2 (7–300 amino acids) mixed with the synthetic peptides; made in house; host or cells: MDM2: in vitro translated (wheat germ cell-free system for the bait preparation); p53: E. coli BL21 (DE3) codon+
Description: (§3) The resulting plasmid was transformed into the E. coli strain BL21 (DE3) codon+. The cells were grown in LB with 50 µg/ml carbenicillin at 37°C to an optical density (OD600) of 0.5 and induced with 1 mM IPTG for 6 h. […] After washing with PBST, the plates were blocked with 5% skim milk at 4°C for 30 min. […] The RNA was purified with the RNeasy mini kit and in vitro-translated in a wheat germ cell-free translation system to produce MDMX protein.

MDMX-p53 interaction = biological target: T1, MDMX-p53 interaction; experiment: ELISA of MDMX (1-200) bound to immobilized His6-p53 in the presence of synthetic peptides; type: binding
Description: as §3

MDMX (1–200 amino acids) = biological target: T2, MDMX (1–200 amino acids); experiment: ELISA; competition: synthetic peptide at various concentrations mixed with in vitro-translated MDM2 (7–300) or MDMX (1–200) in binding buffer (5% skim milk, 10% glycerol), added to His6-p53 immobilized on copper-coated plates, 1 h at room temperature; detection with anti-MDM2 (SMP14) or anti-FLAG M2; settings: one partner purified
[3] = biological target: T4, MDM2_(7–300) fused to the TAP tag (human (A549 cell-derived cDNA library), UniProt Q00987 7-300); experiment: as above; settings: one partner purified
T4 construct: MDM2, residues 7-300, cDNA amplified from an A549 cell-derived cDNA library; primers and plasmid are named MDM(1–294) / pCMV-MDM294-CBPzz; The ELISA methods name only 'in vitro-translated MDM2 (7–300 amino acids)'; also called TAP-tagged MDM2; MDM2 (7–300 amino acids); source: in vitro translated (wheat germ cell-free translation system); immobilised on IgG beads for the pull-down
T4 sequence (Q00987 7-300): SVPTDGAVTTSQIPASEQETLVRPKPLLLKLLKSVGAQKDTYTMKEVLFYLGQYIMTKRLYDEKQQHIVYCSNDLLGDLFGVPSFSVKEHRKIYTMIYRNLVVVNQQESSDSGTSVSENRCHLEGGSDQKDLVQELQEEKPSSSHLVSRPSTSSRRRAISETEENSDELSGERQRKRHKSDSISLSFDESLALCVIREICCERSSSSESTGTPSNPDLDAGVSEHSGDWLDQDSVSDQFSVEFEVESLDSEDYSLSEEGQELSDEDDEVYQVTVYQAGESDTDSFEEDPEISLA

Molecule	IC50 (MDM2-p53 interaction)	IC50 [3]	further results
GFP-MIP: GFP-fused MIP (PRFWEYWLRLME; also: GFP-fused, end not given here)			p53 and its targets (MDM2 and p21) at the protein level [1]: not; proliferation of cells expressing the GFP-fused peptide (HCT116-p53+/+ cells): not inhibited; MDM2 and p21 at the mRNA level ([2]; quantitative RT-PCR): increased; p53 mRNA level ([2]; quantitative RT-PCR): no effect; p53 and its targets (MDM2 and p21) at the protein level ([2]; western blot): increase
LTAEHYAAQATS [3A, reference compound]	> 100000 nM		IC50 (MDMX-p53 interaction): > 100000 nM
PRFWEAWLRLME [MIP (Y6A)]	> 100000 nM		
PRFWEYALRLME [MIP (W7A)]	> 100000 nM		
PRFWEYWLRLME (12-mer selected by mRNA display from a partially randomized library; also called X12-1; source: synthetic peptide) [MIP (MDM2 Inhibitory Peptide), synthetic peptide]		10 nM	IC50 (MDMX (1–200 amino acids)): 120 nM
PRAWEYWLRLME (MIP with Phe3 replaced by Ala; source: synthetic peptide) [MIP (F3A), synthetic peptide]		570 nM	
PRFWEYWLRLAE (MIP with Met11 replaced by Ala; source: synthetic peptide) [MIP (M11A), synthetic peptide]		400 nM	
PRFWEYWLRAME (MIP with Leu10 replaced by Ala; source: synthetic peptide) [MIP (L10A), synthetic peptide]		1140 nM	
PRFWEYWLALME (MIP with Arg9 replaced by Ala; source: synthetic peptide) [MIP (R9A), synthetic peptide]		20 nM	
